Data from PubChem BioAssay AID2060508 (Molecular Pharmacology Branch, DTP, NCI, 2025).
“And” between values parts separate entries of the source, which are not always exact repeats. Identical values can stand only once.

Tested on: 454973-116-R2-J3-PDC spheroids, viability, % test/control
Test: Anticancer human tumor 454973-116-R2-J3-PDC patient-derived pancreatic carcinoma cell line growth inhibition [GQUAD]
Settings: spheroids with HUVEC and MSC; for viability, T/C: stronger effect = lower value
Text: DNA G-quadruplex Stabilizer Agents in Combinations in Complex Spheroids
A high-throughput screen of multi-cell type tumor spheroids was designed to identify active combinations of DNA G-quadruplex stabilizer agents and targeted small molecules. Complex spheroids include a stromal component modeled by human endothelial cells (HUVEC) and fibroblasts modeled by human mesenchymal stem cells (MSCs). The concentration ranges selected for each drug and investigational agent were based upon clinically achievable concentrations if the clinical Cmax of the agent was known.
Compounds. The drugs and investigational agents: pidnarulex (CX-5461; NSC782164), APTO-253 (NSC789042), BRACO-19 (NSC847499), peposertib (NSC802822), ceralasertib (NSC780249), elimusertib (NSC800525), camonsertib (NSC841442), AZD-1390 (NSC803789), olaparib (NSC753686), talazoparib (NSC767125), ART-558 (NSC835418), sotorasib (NSC818433), MRTX-1133 (NSC836407), SN-38 (NSC673596), topotecan (NSC609699), etoposide (NSC141540), doxorubicin (NSC123127), gemcitabine (NSC613327), 5-fluorouracil (NSC19893), paclitaxel (NSC125973), vemurafenib (NSC761431), panobinostat (NSC761190), R-306465 (JNJ-16241199; NSC773264), adavosertib (NSC754352), TP-3654 (NSC805149), carboplatin (NSC241240), KSQ-4279 (NSC840948), and staurosporine (NSC755774) were obtained from the National Cancer Institute (NCI) Developmental Therapeutics Program Chemical Repository (34). The FDA-approved anticancer drug set is available from the NCI Developmental Therapeutics Program. […] The stock solutions were prepared in dimethyl sulfoxide (DMSO, Sigma-Aldrich, St. Louis, MO, cat. D2650) at 800-fold the tested concentration and stored at -70 degrees C prior to their use. All drugs and investigational agents were tested over a range starting from a high concentration at or near the clinical Cmax and decreasing in half-log increments. If the clinical Cmax for an agent had not been determined, the highest concentration tested was 10 microM.
2.3 Cell Culture. All cells were maintained in an incubator at 37 degrees C and 5% CO2 with 95% humidity. The PDC lines were cultured according to standard operating procedures established by the NCI PDMR. All PDCs were thawed and cultured in Matrigel-coated flasks prepared with a working solution of 1X Ham's F-12 nutrient mix, without supplementation (Invitrogen, cat. 11765054), 100 U/mL penicillin-streptomycin (Invitrogen, cat. 15140122), and 2.5% Matrigel (Corning Inc., cat. 354248) for the first three passages. The 857933-349-R-J2-PDC line was cultured in 6C/Colon 1B media, which includes advanced DMEM/F-12 (Thermo Fisher Scientific, cat. 12634028), 10 mM HEPES (Thermo Fisher Scientific, cat. 15630080), 1X GlutaMAX supplement (Thermo Fisher Scientific, cat. 35050061), 0.1 mg/mL primocin (InvivoGen, cat. ant-pm-2), 10% defined fetal bovine serum, heat inactivated (HyClone Laboratories Inc., cat. SH30070.03HI), 50% L-WRN conditioned media (ATCC, cat. CRL-3276), 1.25 mM N-Acetyl-L-cysteine (Sigma-Aldrich, cat. A9165), 10 mM nicotinamide (Sigma-Aldrich, cat. N0636), 1X B-27 supplement (Thermo Fisher Scientific, cat. 17504044), 1X N-2 supplement (Thermo Fisher Scientific, cat. 17502048), 10 microM Y-27632 dihydrochloride (Tocris Bioscience, cat. 1254), and 50 ng/mL human EGF recombinant protein (Thermo Fisher Scientific, cat. PHG0311). The 485176-168-R4-J1-PDC line was cultured in Panc media, which includes all 6C/Colon 1B media components plus 100 ng/mL human FGF-10 (Thermo Fisher Scientific, cat. 100-26), 500 nM SB-431542 (Selleckchem, cat. S1067), and gastrin (Tocris, cat. 3006).
[…]
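Further: spheroids exposed to compounds for seven days.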

## CC1COCCN1c1cc(C2(S(C)(=N)=O)CC2)nc(-c2ccnc3[nH]ccc23)n1 (centres undefined)
Compound 0.0316 µM
  viability, T/C: 104% and 101% (2×)
Compound 0.1 µM
  viability, T/C: 108% (2×) and 109%
Compound 0.316 µM
  viability, T/C: 106% (2×) and 113%
Compound 1 µM
  viability, T/C: 100% and 96.2% and 104%
Compound 3.16 µM
  viability, T/C: 67.5% and 72.8% and 72.2%
Compound 10 µM
  viability, T/C: 30% and 37.2% and 31.8%
Curve of compound
  IC50: 5410 nM and 6580 nM and 5950 nM

## O=c1[nH]cc(F)c(=O)[nH]1
Compound 0.0316 µM
  viability, T/C: 111% and 108% and 105%
Compound 0.1 µM
  viability, T/C: 93.5% and 97.6% and 87.4%
Compound 0.316 µM
  viability, T/C: 105% and 95.1% and 107%
Compound 1 µM
  viability, T/C: 76% and 70.2% and 86.5%
Compound 3.16 µM
  viability, T/C: 32.9% and 34.6% and 35.7%
Compound 10 µM
  viability, T/C: 46.3% and 42.6% and 32.9%
Curve of compound
  IC50: 2270 nM and 2110 nM and 2280 nM

## CCc1c2c(nc3ccc(O)cc13)-c1cc3c(c(=O)n1C2)COC(=O)[C@]3(O)CC
Compound 0.000999 µM
  viability, T/C: 67.3% and 74.7% and 64.5%
Compound 0.00316 µM
  viability, T/C: 29.2% and 22.9% and 21.4%
Compound 0.00999 µM
  viability, T/C: 22.2% and 25.2% and 19.8%
Compound 0.0316 µM
  viability, T/C: 14.2% and 15.5% and 15.7%
Compound 0.0999 µM
  viability, T/C: 9.13% and 8.23% and 8.16%
Compound 0.316 µM
  viability, T/C: 4.31% and 4.99% and 4.01%
Curve of compound
  IC50: 1.76 nM and 1.83 nM and 1.51 nM

## C=CCn1c(=O)c2cnc(Nc3ccc(N4CCN(C)CC4)cc3)nc2n1-c1cccc(C(C)(C)O)n1
Compound 0.0316 µM
  viability, T/C: 108% (2×) and 104%
Compound 0.1 µM
  viability, T/C: 104% and 86.2% and 90.6%
Compound 0.316 µM
  viability, T/C: 54.8% and 68.5% and 59.1%
Compound 1 µM
  viability, T/C: 17.5% and 15.8% and 14.5%
Compound 3.16 µM
  viability, T/C: 7.41% and 7.71% and 9.27%
Compound 10 µM
  viability, T/C: 9.65% and 8.23% and 9.05%
Curve of compound
  IC50: 373 nM and 456 nM and 387 nM

## O=c1[nH]cc(F)c(=O)[nH]1 + Cc1[nH]c2ccc(F)cc2c1-c1nc2c3cccnc3c3ncccc3c2[nH]1
Curve of first compound, second compound 0.0316 µM
  IC50: 2250 nM
Curve of first compound, second compound 0.1 µM
  IC50: 1530 nM
Curve of first compound, second compound 0.316 µM
  IC50: 2190 nM
Curve of first compound, second compound 1 µM
  IC50: 2360 nM
Curve of first compound, second compound 3.16 µM
  IC50: 1920 nM
Curve of first compound, second compound 10 µM
  IC50: 1880 nM
Second compound 0.0316 µM, first compound 0.0316 µM
  viability, T/C: 116%
Second compound 0.0316 µM, first compound 0.1 µM
  viability, T/C: 115%
Second compound 0.0316 µM, first compound 0.316 µM
  viability, T/C: 109%
Second compound 0.0316 µM, first compound 1 µM
  viability, T/C: 77.9%
Second compound 0.0316 µM, first compound 3.16 µM
  viability, T/C: 34.5%
Second compound 0.0316 µM, first compound 10 µM
  viability, T/C: 42.2%
Second compound 0.1 µM, first compound 0.0316 µM
  viability, T/C: 105%
Second compound 0.1 µM, first compound 0.1 µM
  viability, T/C: 109%
Second compound 0.1 µM, first compound 0.316 µM
  viability, T/C: 109%
Second compound 0.1 µM, first compound 1 µM
  viability, T/C: 57.5%
Second compound 0.1 µM, first compound 3.16 µM
  viability, T/C: 33.7%
Second compound 0.1 µM, first compound 10 µM
  viability, T/C: 40.5%
Second compound 0.316 µM, first compound 0.0316 µM
  viability, T/C: 107%
Second compound 0.316 µM, first compound 0.1 µM
  viability, T/C: 110%
Second compound 0.316 µM, first compound 0.316 µM
  viability, T/C: 105%
Second compound 0.316 µM, first compound 1 µM
  viability, T/C: 78.9%
Second compound 0.316 µM, first compound 3.16 µM
  viability, T/C: 31.8%
Second compound 0.316 µM, first compound 10 µM
  viability, T/C: 41.1%
Second compound 1 µM, first compound 0.0316 µM
  viability, T/C: 99.2%
Second compound 1 µM, first compound 0.1 µM
  viability, T/C: 97.2%
Second compound 1 µM, first compound 0.316 µM
  viability, T/C: 95.4%
Second compound 1 µM, first compound 1 µM
  viability, T/C: 79.1%
Second compound 1 µM, first compound 3.16 µM
  viability, T/C: 33.9%
Second compound 1 µM, first compound 10 µM
  viability, T/C: 46.3%
Second compound 3.16 µM, first compound 0.0316 µM
  viability, T/C: 96.5%
Second compound 3.16 µM, first compound 0.1 µM
  viability, T/C: 96.1%
Second compound 3.16 µM, first compound 0.316 µM
  viability, T/C: 99.9%
Second compound 3.16 µM, first compound 1 µM
  viability, T/C: 65.1%
Second compound 3.16 µM, first compound 3.16 µM
  viability, T/C: 31.4%
Second compound 3.16 µM, first compound 10 µM
  viability, T/C: 45.6%
Second compound 10 µM, first compound 0.0316 µM
  viability, T/C: 93.5%
Second compound 10 µM, first compound 0.1 µM
  viability, T/C: 87.7%
Second compound 10 µM, first compound 0.316 µM
  viability, T/C: 102%
Second compound 10 µM, first compound 1 µM
  viability, T/C: 63.7%
Second compound 10 µM, first compound 3.16 µM
  viability, T/C: 30.9%
Second compound 10 µM, first compound 10 µM
  viability, T/C: 46.6%

## C#Cc1c(F)ccc2cc(O)cc(-c3ncc4c(N5CC6CCC(C5)N6)nc(OCC56CCCN5CC(F)C6)nc4c3F)c12 (centres undefined)
Compound 0.0316 µM
  viability, T/C: 52.7% and 54.6% and 60.6%
Compound 0.1 µM
  viability, T/C: 42.3% and 39% and 39.8%
Compound 0.316 µM
  viability, T/C: 31.2% and 22.9% and 28.2%
Compound 1 µM
  viability, T/C: 27.5% and 20.6% and 21.6%
Compound 3.16 µM
  viability, T/C: 23.3% and 19.5% and 22%
Compound 10 µM
  viability, T/C: 19% and 15.4% and 15.2%
Curve of compound
  IC50: 42.3 nM and 44.4 nM and 56.7 nM

## Cc1[nH]c2ccccc2c1CCNCc1ccc(/C=C/C(=O)NO)cc1
Compound 0.000999 µM
  viability, T/C: 106% and 102% and 99.1%
Compound 0.00316 µM
  viability, T/C: 112% and 98.9% and 102%
Compound 0.00999 µM
  viability, T/C: 103% and 102% and 105%
Compound 0.0316 µM
  viability, T/C: 87.6% and 82.6% and 84.8%
Compound 0.0999 µM
  viability, T/C: 37.9% and 37.3% and 32%
Compound 0.316 µM
  viability, T/C: 6.04% and 6.14% and 2.02%
Curve of compound
  IC50: 75.5 nM and 72.5 nM and 67.7 nM
